Data reported in ChEMBL document CHEMBL3991601, “The target landscape of clinical kinase drugs” (Science, 2017).
Activity calls are given as the source filed them. For most assays here, no stated cut-off is given here; in the data, actives have a measured Kd and inactives only a lower limit.

Experiments:
LIM domain kinase 1 = LIM domain kinase 1 (Homo sapiens, UniProt P53667)
[1] = target: Serine/threonine-protein kinase PAK 4 (Homo sapiens, UniProt O96013)
[2] = target: Glycogen synthase kinase-3 alpha (Homo sapiens, UniProt P49840)
Chain of Glycogen synthase kinase-3 alpha (P49840 whole entry): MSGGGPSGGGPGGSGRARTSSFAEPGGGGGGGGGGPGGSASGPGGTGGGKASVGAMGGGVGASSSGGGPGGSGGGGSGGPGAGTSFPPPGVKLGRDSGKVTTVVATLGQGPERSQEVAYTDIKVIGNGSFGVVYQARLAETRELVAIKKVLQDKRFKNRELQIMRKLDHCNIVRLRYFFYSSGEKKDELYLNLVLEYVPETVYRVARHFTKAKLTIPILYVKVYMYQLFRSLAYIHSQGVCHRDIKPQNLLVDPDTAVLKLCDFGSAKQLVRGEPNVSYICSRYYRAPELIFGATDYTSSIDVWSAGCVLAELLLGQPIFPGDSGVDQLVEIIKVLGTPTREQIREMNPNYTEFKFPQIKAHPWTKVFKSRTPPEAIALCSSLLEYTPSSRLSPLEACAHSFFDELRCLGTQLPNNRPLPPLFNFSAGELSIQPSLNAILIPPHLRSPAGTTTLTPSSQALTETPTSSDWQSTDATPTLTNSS

[3] = target: Adenylate kinase 2, mitochondrial (Homo sapiens, UniProt P54819)
[4] = target: Mitotic checkpoint serine/threonine-protein kinase BUB1 (Homo sapiens, UniProt O43683)
[5] = target: T1, Exosome RNA helicase MTR4 (Homo sapiens, UniProt P42285)
T1 sequence (P42285 whole entry): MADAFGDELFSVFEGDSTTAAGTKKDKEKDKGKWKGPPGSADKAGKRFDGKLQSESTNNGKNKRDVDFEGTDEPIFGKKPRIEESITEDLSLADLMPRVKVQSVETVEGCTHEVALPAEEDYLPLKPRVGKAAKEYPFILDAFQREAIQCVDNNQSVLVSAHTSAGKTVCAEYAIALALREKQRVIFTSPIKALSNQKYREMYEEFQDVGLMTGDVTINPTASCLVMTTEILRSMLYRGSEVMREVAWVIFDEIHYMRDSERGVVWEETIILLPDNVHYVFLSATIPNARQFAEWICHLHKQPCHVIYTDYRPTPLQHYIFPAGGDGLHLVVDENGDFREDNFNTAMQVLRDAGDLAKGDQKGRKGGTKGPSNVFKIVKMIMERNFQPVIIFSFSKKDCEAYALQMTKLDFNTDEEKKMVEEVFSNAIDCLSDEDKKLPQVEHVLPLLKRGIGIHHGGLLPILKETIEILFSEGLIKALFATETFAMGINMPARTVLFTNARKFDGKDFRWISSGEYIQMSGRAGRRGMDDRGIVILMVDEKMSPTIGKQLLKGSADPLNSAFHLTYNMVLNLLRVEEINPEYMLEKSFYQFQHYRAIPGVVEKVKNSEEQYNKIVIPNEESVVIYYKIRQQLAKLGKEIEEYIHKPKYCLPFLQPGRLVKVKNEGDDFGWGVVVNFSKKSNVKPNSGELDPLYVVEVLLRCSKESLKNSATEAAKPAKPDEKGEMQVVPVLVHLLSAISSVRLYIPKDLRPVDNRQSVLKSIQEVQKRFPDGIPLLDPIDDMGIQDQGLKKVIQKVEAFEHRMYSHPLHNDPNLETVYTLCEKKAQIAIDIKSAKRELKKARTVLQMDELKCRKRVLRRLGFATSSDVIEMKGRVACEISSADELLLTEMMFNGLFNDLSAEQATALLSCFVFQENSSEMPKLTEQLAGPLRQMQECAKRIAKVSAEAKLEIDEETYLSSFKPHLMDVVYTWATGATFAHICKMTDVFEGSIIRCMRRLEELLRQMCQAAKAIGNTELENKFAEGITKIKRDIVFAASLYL

[6] = target: T2, Serine/threonine-protein kinase 3 (Homo sapiens, UniProt Q13188)
T2 sequence (Q13188 whole entry): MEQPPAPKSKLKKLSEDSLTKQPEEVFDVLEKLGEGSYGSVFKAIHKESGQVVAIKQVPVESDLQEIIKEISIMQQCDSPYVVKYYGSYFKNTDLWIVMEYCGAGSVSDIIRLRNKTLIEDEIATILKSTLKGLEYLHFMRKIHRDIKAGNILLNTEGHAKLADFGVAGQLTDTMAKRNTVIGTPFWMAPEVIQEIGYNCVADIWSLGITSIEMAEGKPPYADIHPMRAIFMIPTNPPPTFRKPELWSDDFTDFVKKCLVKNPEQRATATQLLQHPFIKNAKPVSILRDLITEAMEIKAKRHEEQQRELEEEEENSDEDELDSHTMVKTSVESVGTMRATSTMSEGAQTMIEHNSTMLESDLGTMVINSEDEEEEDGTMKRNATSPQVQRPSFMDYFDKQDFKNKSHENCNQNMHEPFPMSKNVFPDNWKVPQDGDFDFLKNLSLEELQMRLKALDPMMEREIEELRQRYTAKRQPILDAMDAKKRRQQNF

[7] = target: T3, Serine/threonine-protein kinase Chk1 (Homo sapiens, UniProt O14757)
T3 sequence (O14757 whole entry): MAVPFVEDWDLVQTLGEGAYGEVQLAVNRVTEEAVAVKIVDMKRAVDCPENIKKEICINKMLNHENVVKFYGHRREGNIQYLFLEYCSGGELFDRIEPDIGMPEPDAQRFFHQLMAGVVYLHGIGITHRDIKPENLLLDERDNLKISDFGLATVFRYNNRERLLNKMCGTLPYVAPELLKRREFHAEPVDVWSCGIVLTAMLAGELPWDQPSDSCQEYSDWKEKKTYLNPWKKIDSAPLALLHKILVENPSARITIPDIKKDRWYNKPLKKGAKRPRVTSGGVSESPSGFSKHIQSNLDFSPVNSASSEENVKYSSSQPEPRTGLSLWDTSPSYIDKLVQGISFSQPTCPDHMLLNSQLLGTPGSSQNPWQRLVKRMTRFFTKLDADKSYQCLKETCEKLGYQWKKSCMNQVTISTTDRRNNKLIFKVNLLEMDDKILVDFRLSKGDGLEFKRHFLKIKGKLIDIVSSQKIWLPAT

[8] = target: Serine/threonine-protein kinase 16 (Homo sapiens, UniProt O75716)
[9] = target: Calcium/calmodulin-dependent protein kinase type II subunit delta (Homo sapiens, UniProt Q13557)
Chain of Calcium/calmodulin-dependent protein kinase type II subunit delta (Q13557 whole entry): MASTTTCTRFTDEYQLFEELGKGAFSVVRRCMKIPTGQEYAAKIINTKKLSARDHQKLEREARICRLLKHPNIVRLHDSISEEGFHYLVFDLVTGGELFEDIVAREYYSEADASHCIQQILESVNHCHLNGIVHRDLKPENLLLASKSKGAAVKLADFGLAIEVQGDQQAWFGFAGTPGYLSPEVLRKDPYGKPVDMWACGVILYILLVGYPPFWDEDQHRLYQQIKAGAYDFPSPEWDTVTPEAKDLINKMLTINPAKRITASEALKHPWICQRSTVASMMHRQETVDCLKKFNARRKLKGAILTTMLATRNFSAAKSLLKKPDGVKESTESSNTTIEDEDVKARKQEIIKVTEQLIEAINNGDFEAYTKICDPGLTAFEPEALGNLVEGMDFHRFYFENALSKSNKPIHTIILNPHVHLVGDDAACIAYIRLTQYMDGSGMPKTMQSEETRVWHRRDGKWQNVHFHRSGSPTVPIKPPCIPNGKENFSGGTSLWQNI

[10] = target: Serine/threonine-protein kinase SIK3 (Homo sapiens, UniProt Q9Y2K2)
Chain of Serine/threonine-protein kinase SIK3 (Q9Y2K2 whole entry): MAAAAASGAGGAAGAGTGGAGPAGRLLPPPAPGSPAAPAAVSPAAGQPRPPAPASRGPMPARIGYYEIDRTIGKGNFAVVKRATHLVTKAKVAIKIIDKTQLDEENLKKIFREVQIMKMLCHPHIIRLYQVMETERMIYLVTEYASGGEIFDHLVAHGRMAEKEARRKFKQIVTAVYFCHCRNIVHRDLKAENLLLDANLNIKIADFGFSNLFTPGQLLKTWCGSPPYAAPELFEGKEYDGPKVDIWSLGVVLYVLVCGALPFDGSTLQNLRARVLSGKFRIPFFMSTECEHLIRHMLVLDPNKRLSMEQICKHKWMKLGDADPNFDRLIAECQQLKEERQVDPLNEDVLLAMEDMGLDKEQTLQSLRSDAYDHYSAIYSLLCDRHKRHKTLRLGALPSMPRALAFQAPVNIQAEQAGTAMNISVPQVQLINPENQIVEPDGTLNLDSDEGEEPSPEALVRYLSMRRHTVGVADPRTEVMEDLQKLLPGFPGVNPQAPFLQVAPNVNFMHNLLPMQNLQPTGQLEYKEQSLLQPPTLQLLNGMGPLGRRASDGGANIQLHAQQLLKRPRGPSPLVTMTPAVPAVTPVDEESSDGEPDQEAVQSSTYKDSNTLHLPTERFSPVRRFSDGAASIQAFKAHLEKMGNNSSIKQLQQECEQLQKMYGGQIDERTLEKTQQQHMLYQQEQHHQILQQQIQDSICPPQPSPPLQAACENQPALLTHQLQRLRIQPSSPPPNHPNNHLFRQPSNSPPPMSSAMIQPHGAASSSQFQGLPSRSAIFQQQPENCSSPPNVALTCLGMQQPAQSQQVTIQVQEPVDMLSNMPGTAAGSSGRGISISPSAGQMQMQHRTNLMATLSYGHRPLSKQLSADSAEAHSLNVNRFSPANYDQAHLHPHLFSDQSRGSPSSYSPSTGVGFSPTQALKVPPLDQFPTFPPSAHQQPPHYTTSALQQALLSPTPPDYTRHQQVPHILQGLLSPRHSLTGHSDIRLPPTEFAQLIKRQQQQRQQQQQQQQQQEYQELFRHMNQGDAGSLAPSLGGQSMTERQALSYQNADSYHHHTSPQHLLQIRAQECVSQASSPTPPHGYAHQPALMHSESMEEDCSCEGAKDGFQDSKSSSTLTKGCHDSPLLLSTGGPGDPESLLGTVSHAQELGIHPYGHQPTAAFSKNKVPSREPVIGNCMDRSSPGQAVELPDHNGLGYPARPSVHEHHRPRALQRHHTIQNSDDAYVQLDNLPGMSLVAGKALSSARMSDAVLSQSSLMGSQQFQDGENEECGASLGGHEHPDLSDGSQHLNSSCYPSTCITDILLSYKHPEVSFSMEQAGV

Adenosine kinase = Adenosine kinase (Homo sapiens, UniProt P55263)
Chain of Adenosine kinase (P55263 whole entry): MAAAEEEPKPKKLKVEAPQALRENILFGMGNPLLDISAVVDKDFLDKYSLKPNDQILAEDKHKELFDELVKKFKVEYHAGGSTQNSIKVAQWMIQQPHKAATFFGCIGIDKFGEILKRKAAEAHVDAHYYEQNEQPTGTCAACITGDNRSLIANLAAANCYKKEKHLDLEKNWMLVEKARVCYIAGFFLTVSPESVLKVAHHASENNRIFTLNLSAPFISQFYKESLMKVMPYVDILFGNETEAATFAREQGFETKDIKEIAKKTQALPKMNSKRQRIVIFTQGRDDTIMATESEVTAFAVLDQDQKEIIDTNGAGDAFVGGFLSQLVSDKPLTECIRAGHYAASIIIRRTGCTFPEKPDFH

[11] = target: Cyclin-dependent kinase 3 (Homo sapiens, UniProt Q00526)
[12] = target: Cyclin-dependent kinase 5 (Homo sapiens, UniProt Q00535)
Chain of Cyclin-dependent kinase 5 (Q00535 whole entry, the tested form may be a part): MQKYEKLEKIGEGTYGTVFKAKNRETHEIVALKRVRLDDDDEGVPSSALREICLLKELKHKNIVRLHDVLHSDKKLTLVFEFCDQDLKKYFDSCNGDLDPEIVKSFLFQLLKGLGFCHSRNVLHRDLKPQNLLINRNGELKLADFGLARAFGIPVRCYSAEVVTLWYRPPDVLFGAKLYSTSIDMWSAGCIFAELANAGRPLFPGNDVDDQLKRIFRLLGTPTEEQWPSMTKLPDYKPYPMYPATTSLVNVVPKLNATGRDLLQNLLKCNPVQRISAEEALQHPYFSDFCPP

LIM domain kinase 2 = LIM domain kinase 2 (Homo sapiens, UniProt P53671)
Chain of LIM domain kinase 2 (P53671 whole entry, the tested form may be a part): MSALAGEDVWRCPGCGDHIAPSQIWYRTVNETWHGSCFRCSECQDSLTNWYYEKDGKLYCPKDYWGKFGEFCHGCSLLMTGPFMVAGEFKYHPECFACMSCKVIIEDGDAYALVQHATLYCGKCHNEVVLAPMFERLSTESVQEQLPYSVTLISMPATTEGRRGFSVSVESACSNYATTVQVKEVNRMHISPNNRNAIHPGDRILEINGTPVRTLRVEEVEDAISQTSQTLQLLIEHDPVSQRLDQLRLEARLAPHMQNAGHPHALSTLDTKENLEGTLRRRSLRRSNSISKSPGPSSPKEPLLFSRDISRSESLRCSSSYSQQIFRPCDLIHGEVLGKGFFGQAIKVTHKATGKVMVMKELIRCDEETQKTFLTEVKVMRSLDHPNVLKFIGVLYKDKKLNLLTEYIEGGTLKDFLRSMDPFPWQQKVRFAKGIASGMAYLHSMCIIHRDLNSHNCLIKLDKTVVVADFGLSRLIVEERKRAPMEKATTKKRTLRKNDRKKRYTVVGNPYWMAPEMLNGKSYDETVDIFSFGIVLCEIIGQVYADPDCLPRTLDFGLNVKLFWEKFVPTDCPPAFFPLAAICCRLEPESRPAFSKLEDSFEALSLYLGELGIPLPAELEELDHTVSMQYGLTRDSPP

Measured: Kd

Chain of LIM domain kinase 1 (P53667 whole entry, the tested form may be a part): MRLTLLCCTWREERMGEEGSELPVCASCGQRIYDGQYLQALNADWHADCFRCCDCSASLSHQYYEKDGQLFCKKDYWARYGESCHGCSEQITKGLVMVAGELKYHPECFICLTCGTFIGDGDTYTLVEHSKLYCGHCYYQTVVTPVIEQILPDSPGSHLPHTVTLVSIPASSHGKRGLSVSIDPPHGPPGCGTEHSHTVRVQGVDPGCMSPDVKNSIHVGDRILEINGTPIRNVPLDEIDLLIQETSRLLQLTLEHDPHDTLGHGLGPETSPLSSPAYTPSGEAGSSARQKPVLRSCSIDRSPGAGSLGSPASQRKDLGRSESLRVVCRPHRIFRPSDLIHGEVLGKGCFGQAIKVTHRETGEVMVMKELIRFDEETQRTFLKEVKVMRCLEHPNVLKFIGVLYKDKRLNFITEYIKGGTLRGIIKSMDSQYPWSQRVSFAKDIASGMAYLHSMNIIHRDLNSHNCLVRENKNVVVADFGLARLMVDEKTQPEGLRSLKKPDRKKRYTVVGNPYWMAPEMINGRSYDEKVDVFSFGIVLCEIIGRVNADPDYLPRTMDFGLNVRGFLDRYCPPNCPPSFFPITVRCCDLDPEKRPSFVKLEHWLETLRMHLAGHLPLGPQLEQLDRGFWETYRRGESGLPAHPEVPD
Chain of Serine/threonine-protein kinase PAK 4 (O96013 whole entry): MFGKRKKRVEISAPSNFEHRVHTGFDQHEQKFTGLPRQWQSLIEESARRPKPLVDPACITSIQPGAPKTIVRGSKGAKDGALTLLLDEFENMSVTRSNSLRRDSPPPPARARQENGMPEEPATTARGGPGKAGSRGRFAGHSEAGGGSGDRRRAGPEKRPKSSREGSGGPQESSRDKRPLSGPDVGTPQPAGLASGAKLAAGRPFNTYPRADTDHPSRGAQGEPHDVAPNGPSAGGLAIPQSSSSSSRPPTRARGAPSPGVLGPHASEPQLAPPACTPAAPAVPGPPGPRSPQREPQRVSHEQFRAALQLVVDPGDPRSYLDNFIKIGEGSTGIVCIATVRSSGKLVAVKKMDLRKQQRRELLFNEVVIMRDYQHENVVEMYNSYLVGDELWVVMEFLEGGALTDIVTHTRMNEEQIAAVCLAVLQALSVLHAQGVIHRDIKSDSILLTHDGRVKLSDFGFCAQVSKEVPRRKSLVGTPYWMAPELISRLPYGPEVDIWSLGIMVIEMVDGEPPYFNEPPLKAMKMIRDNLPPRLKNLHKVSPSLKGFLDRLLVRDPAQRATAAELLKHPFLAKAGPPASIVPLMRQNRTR

CNC(=O)c1cc(COc2nnc(Nc3ccc(Cl)cc3)c3ccoc23)ccn1 [TELATINIB]
inactive: LIM domain kinase 1 > 30 µM | [1] > 30 µM | [2] > 30 µM | [3] > 30 µM | [4] > 30 µM | [5] > 30 µM | [6] > 30 µM | [7] > 30 µM | [8] > 30 µM | [9] > 30 µM | [10] > 30 µM | Adenosine kinase > 30 µM | [11] > 30 µM | [12] > 30 µM | LIM domain kinase 2 > 30 µM

Cc1cc(-c2cc(OC(=O)c3ccccc3)ccc2Cl)cc2nnc(Nc3ccc(OCCN4CCCC4)cc3)nc12 [TG100-801]
inactive: LIM domain kinase 1 > 30 µM | [1] > 30 µM | [2] > 30 µM | [3] > 30 µM | [4] > 30 µM | [5] > 30 µM | [6] > 30 µM | [7] > 30 µM | [8] > 30 µM | [9] > 30 µM | [10] > 30 µM | Adenosine kinase > 30 µM | [11] > 30 µM | [12] > 30 µM | LIM domain kinase 2 > 30 µM

C[C@@H]1COC(Nc2ccc3ncnc(Nc4ccc(OCc5nccs5)c(Cl)c4)c3c2)=N1 [VARLITINIB]
inactive: LIM domain kinase 1 > 30 µM | [1] > 30 µM | [2] > 30 µM | [3] > 30 µM | [4] > 30 µM | [5] > 30 µM | [6] > 30 µM | [7] > 30 µM | [8] > 30 µM | [9] > 30 µM | [10] > 30 µM | Adenosine kinase > 30 µM | [11] > 30 µM | [12] > 30 µM | LIM domain kinase 2 > 30 µM

CNC(=O)c1cccc(-c2ccc3c(N4CCOC[C@@H]4C)nc(N4CCOC[C@@H]4C)nc3n2)c1 [VISTUSERTIB]
inactive: LIM domain kinase 1 > 30 µM | [1] > 30 µM | [2] > 30 µM | [3] > 30 µM | [4] > 30 µM | [5] > 30 µM | [6] > 30 µM | [7] > 30 µM | [8] > 30 µM | [9] > 30 µM | [10] > 30 µM | Adenosine kinase > 30 µM | [11] > 30 µM | [12] > 30 µM | LIM domain kinase 2 > 30 µM

NC(=O)c1ccc(N(C(N)=O)c2c(F)cccc2F)nc1-c1ccc(F)cc1F [VX-702]
inactive: LIM domain kinase 1 > 30 µM | [1] > 30 µM | [2] > 30 µM | [3] > 30 µM | [4] > 30 µM | [5] > 30 µM | [6] > 30 µM | [7] > 30 µM | [8] > 30 µM | [9] > 30 µM | [10] > 30 µM | Adenosine kinase > 30 µM | [11] > 30 µM | [12] > 30 µM | LIM domain kinase 2 > 30 µM

COc1cc2ncnc(Nc3ccc(O)cc3)c2cc1OC [WHI-P131]
inactive: LIM domain kinase 1 > 30 µM | [1] > 30 µM | [2] > 30 µM | [3] > 30 µM | [4] > 30 µM | [5] > 30 µM | [6] > 30 µM | [7] > 30 µM | [8] > 30 µM | [9] > 30 µM | [10] > 30 µM | Adenosine kinase > 30 µM | [11] > 30 µM | [12] > 30 µM | LIM domain kinase 2 > 30 µM
